The text below walks through data of ChEMBL document CHEMBL1201862, “PubChem BioAssay data set” (2004).

Among the test systems are A498; DU-145; UACC-257; MDA-MB-231; SW-620; COLO 205; SNB-19; K562; SK-MEL-28; RXF 393; ACHN; KM12; MDA-MB-435; NCI-H23; NCI-H226; SK-MEL-2; UACC-62; SK-OV-3; SNB-75.
Common to all, as to assay: NCI anticancer screen, dose series, 48 h

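Grown in 96-well plates, cells were treated for 48 hours with each compound at five concentrations. Insufficient inhibition: endpoint recorded as highest concentration tested. Here, GI50 denotes the concentration required for 50% inhibition of growth.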 Calls of active or inactive are those of the source. Rule as the data show it: active = GI50 up to about 1.1 µM and inactive = higher.

With `NCCCCC(NC(=O)C(N)Cc1ccc(O)cn1)C(=O)O` (stereo not given), the GI50 in the assay on A498, in the assay with DU-145, with UACC-257, in the assay on MDA-MB-231, in the assay with SW-620 and with COLO 205 was > 100 µM (inactive) each time. Further, the GI50 in the assay with SNB-19, in the assay with K562, in the assay on SK-MEL-28, in the assay with RXF 393, with ACHN and with KM12 was > 100 µM (inactive) throughout. Moreover, the GI50 in the assay with MDA-MB-435, in the assay with NCI-H23 and in the assay with NCI-H226 was > 100 µM (inactive) throughout.

In the case of `CC(=O)C1(C)CC(C#N)(C#N)C(C#N)=C1N` (stereo not given), the GI50 with A498, with DU-145, with UACC-257, in the assay with SK-MEL-2, with MDA-MB-231 and in the assay on SW-620 was > 100 µM (inactive) in each case. Further, the GI50 with COLO 205, in the assay with SNB-19, in the assay on UACC-62, in the assay with K562, in the assay with SK-OV-3 and in the assay with RXF 393 was > 100 µM (inactive) throughout. The GI50 with ACHN, with KM12, with MDA-MB-435, in the assay with SNB-75, with NCI-H23 and with NCI-H226 was > 100 µM (inactive) throughout.

For the compound `c1cc2c(c(NC3=NCCO3)c1)CCC2`, the GI50 with A498, with DU-145, in the assay on UACC-257, with SK-MEL-2, in the assay on MDA-MB-231 and in the assay on SW-620 was > 100 µM (inactive) each time. Also, the GI50 in the assay on COLO 205, in the assay on SNB-19, in the assay with UACC-62, in the assay on K562, with SK-MEL-28 and in the assay on SK-OV-3 was > 100 µM (inactive) each time. The GI50 with RXF 393 was > 100 µM (inactive); in the assay on ACHN it was > 100 µM (inactive); with KM12, > 100 µM (inactive); with MDA-MB-435 it was 85.7 µM (inactive); in the assay with NCI-H23, > 100 µM (inactive); with NCI-H226, > 100 µM (inactive).

As to `CCN1C(NCCO)=NS(=O)(=O)c2ccccc21`, the GI50 with A498, in the assay on DU-145, with UACC-257, in the assay with SK-MEL-2, with MDA-MB-231 and in the assay on SW-620 was > 100 µM (inactive) throughout. Besides, the GI50 in the assay on COLO 205, in the assay on SNB-19, in the assay with UACC-62, with K562, in the assay on SK-MEL-28 and in the assay with SK-OV-3 was > 100 µM (inactive) in each case. Moreover, the GI50 with RXF 393, with ACHN, in the assay with KM12, with MDA-MB-435, in the assay on NCI-H23 and with NCI-H226 was > 100 µM (inactive) each time.

On to `CC(C)(C)OC(=O)NCC(O)CNC(=O)OC(C)(C)C`, for which the GI50 in the assay on A498, in the assay with DU-145, with UACC-257, with MDA-MB-231, in the assay on SW-620 and with COLO 205 was > 100 µM (inactive) in each case. For the same compound, the GI50 in the assay on SNB-19, in the assay with UACC-62, with K562, with SK-MEL-28, in the assay with SK-OV-3 and in the assay with RXF 393 was > 100 µM (inactive) in each case. Also, the GI50 in the assay with ACHN, with KM12, with MDA-MB-435, with NCI-H23 and with NCI-H226 was > 100 µM (inactive) throughout.

In the case of `Cc1ccc(S(=O)(=O)N2CCSCCN(S(=O)(=O)c3ccc(C)cc3)CCN(S(=O)(=O)c3ccc(C)cc3)CC2)cc1`, the GI50 is 69.7 µM (inactive) in the assay with A498; > 100 µM (inactive) in the assay on DU-145; 25.9 µM (inactive) in the assay on SK-MEL-2; 17.4 µM (inactive) in the assay with MDA-MB-231; > 100 µM (inactive) in the assay with SW-620; > 100 µM (inactive) in the assay with COLO 205. Also, the GI50 is 29.2 µM (inactive) with SNB-19; > 100 µM (inactive) in the assay on UACC-62; > 100 µM (inactive) with K562; > 100 µM (inactive) in the assay with SK-MEL-28; 30.1 µM (inactive) with SK-OV-3; 27.9 µM (inactive) with RXF 393. The GI50 is > 100 µM (inactive) with MDA-MB-435, 79.4 µM (inactive) in the assay on NCI-H23 and > 100 µM (inactive) in the assay with NCI-H226.

`O=C1Nc2ccc(Br)cc2/C1=N/NC(=S)Nc1ccc(F)cc1`: the GI50 was 2.26 µM (inactive) in the assay on A498; 4.3 µM (inactive) in the assay with DU-145; 9.77 µM (inactive) with UACC-257; 10.9 µM (inactive) in the assay with SK-MEL-2; 12.6 µM (inactive) with MDA-MB-231; 4.78 µM (inactive) with SW-620. In addition, the GI50 was 4.02 µM (inactive) in the assay with COLO 205; 2.56 µM (inactive) with UACC-62; 3.61 µM (inactive) in the assay on K562; 3.94 µM (inactive) in the assay on SK-MEL-28; 13.2 µM (inactive) in the assay with SK-OV-3; 1.76 µM (inactive) in the assay with RXF 393. Also, the GI50 in the assay on ACHN is 3.43 µM (inactive); in the assay on KM12, 5.11 µM (inactive); in the assay on MDA-MB-435 it was 2.4 µM (inactive); in the assay with SNB-75, 11.1 µM (inactive); with NCI-H23, 0.794 µM (active); in the assay with NCI-H226, 9.84 µM (inactive).

For `CCOc1ccc(C(=O)/C=C2/Nc3ccccc3N/C2=C/C(=O)c2ccc(OCC)cc2)cc1`, the GI50 with A498, in the assay with DU-145, with UACC-257, in the assay on SK-MEL-2, with MDA-MB-231 and with SW-620 was > 100 µM (inactive) throughout. The GI50 in the assay with COLO 205, in the assay with SNB-19, with UACC-62, in the assay with K562, in the assay on SK-MEL-28 and in the assay on SK-OV-3 was > 100 µM (inactive) each time. The GI50 with RXF 393, with ACHN, in the assay with MDA-MB-435, in the assay with NCI-H23 and in the assay on NCI-H226 was > 100 µM (inactive) each time.

Regarding `CC1(C)CC2=C(Sc3ccccc3N2)C(=O)C1C(=O)C(=O)Nc1cccc([N+](=O)[O-])c1` (stereo not given), the GI50 in the assay on A498 was > 100 µM (inactive); in the assay on DU-145, > 100 µM (inactive); in the assay on UACC-257, > 100 µM (inactive); in the assay on SK-MEL-2, > 100 µM (inactive); in the assay with MDA-MB-231, 99.3 µM (inactive); with SW-620 it was > 100 µM (inactive). For the same compound, the GI50 was > 100 µM (inactive) in the assay with COLO 205; > 100 µM (inactive) in the assay on SNB-19; 98.2 µM (inactive) in the assay on UACC-62; 66.8 µM (inactive) with K562; > 100 µM (inactive) in the assay with SK-MEL-28; > 100 µM (inactive) with SK-OV-3. Also, the GI50 in the assay on ACHN is > 100 µM (inactive); in the assay with KM12, 44 µM (inactive); with MDA-MB-435, > 100 µM (inactive); in the assay on SNB-75, > 100 µM (inactive); with NCI-H23, > 100 µM (inactive); with NCI-H226, > 100 µM (inactive).

`COC(=O)C1Cc2cc3c(cc2C1=O)CCC3` (stereo not given): the GI50 in the assay on A498, in the assay on DU-145, in the assay on UACC-257, in the assay with SK-MEL-2, with MDA-MB-231 and in the assay on SW-620 was > 100 µM (inactive) in each case. For the same compound, the GI50 in the assay with COLO 205 is > 100 µM (inactive); in the assay with SNB-19, > 100 µM (inactive); in the assay with UACC-62, > 100 µM (inactive); in the assay on K562, 43 µM (inactive); in the assay with SK-MEL-28, > 100 µM (inactive); with SK-OV-3, > 100 µM (inactive). For the same compound, the GI50 with ACHN, in the assay with KM12, with MDA-MB-435, in the assay on SNB-75, in the assay with NCI-H23 and with NCI-H226 was > 100 µM (inactive) throughout.

Turning to `CC1=C(c2ccccc2)NC(=S)C(C)C(c2ccccc2)=N1` (stereo not given), the GI50 in the assay on A498 was 27.2 µM (inactive); in the assay with DU-145 it was 40.4 µM (inactive); with UACC-257, 28.8 µM (inactive); in the assay with MDA-MB-231 it was > 100 µM (inactive); with SW-620, 44.1 µM (inactive); with COLO 205, 30.9 µM (inactive). Further, the GI50 is > 100 µM (inactive) with SNB-19; 33.7 µM (inactive) in the assay on UACC-62; 10.6 µM (inactive) in the assay with K562; 38.9 µM (inactive) in the assay on SK-MEL-28; > 100 µM (inactive) in the assay on SK-OV-3; 21.7 µM (inactive) with RXF 393. For the same compound, the GI50 with ACHN is 11.7 µM (inactive); in the assay with KM12, 21.2 µM (inactive); in the assay on MDA-MB-435, 18.7 µM (inactive); in the assay on SNB-75, 65.6 µM (inactive); with NCI-H23, 9.91 µM (inactive); in the assay with NCI-H226 it was 52.4 µM (inactive).

In the case of `CC(=O)Nc1cc(Nc2cc(O)nc(O)n2)ccc1C`, the GI50 in the assay on A498, in the assay on DU-145, with UACC-257, with MDA-MB-231, in the assay on SW-620 and with COLO 205 was > 100 µM (inactive) in each case. Also, the GI50 in the assay with SNB-19, in the assay with K562, in the assay on SK-MEL-28, in the assay on RXF 393, in the assay with ACHN and with KM12 was > 100 µM (inactive) each time. The GI50 in the assay with MDA-MB-435, with SNB-75 and in the assay on NCI-H226 was > 100 µM (inactive) throughout.
